The results in this text go back to patent EP2599480A1 (priority 2011, dated 2013).

Series [1] concerns the target NA of influenza virus A/PR/8/34 (Influenza A virus, UniProt P03468). Briefly: biochemical. Set-up: species or system H1N1 influenza virus A/Puerto Rico/8/34.
A short description of series [2]: in vitro. To be noted: dog; for CC50 at 72 h: mdck.
Series [3] concerns NA of influenza virus A/Jena/5555/09. The series is classed as biochemical, clinical H1N1 isolate A/Jena/5555/09.
For series [4], the system named is NA of influenza virus A/Jena/5528/09. It counts as biochemical, clinical H1N1 isolate A/Jena/5528/09.

Like-named read-outs stand apart in the source and are kept apart here.

NA of influenza virus A/PR/8/34, sequence (P03468 whole entry, looked up): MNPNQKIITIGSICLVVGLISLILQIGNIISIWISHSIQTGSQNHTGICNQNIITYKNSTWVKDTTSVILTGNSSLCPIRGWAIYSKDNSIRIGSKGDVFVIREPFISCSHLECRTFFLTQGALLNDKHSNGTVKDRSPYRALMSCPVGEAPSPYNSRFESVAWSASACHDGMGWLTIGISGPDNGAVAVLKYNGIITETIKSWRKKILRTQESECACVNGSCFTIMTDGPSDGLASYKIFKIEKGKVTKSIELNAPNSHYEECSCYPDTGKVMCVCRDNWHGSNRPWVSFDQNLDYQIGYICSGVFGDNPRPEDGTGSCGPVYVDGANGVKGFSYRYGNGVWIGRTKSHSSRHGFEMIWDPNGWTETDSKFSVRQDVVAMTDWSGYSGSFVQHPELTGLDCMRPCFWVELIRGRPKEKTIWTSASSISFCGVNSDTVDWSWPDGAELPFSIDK

In turn, `Cc1ccc(S(=O)(=O)Oc2cc(S(=O)(=O)O)cc3cc(S(=O)(=O)O)cc(N)c23)cc1` [NCI compound 16168] had an IC50 in series [1] (IC50 for A/PR/8/34) of 5.91 µM. The compound further yielded a CC50 in series [2] above 100 µM.

`O=C(Nc1cc(S(=O)(=O)O)cc2cc(S(=O)(=O)O)cc(O)c12)c1ccccc1` [NCI compound 16169] registered a CC50 in series [2] above 100 µM.

In series [1], `Nc1c(N=Nc2ccc(S(=O)(=O)Nc3ccccn3)cc2)cc(S(=O)(=O)O)c2ccccc12` [NCI compound 30456] came in with an IC50 below 0.12 µM.

As for `Nc1c(N=Nc2ccc(S(=O)(=O)Nc3nccs3)cc2)cc(S(=O)(=O)O)c2ccccc12` [NCI compound 31348], the CC50 at 72 h in series [2] is above 100 µM.

Compound `O=C(Nc1cc(S(=O)(=O)O)cc2cc(S(=O)(=O)O)ccc12)c1ccccc1` [NCI compound 37172] had a CC50 in series [2] above 100 µM.

With `Nc1ccc(C(=O)Nc2cc(S(=O)(=O)O)cc3cccc(O)c23)cc1` [NCI compound 37176], the CC50 in series [2] is above 100 µM.

`Nc1ccc(C(=O)Nc2cc(S(=O)(=O)O)cc3cc(S(=O)(=O)O)ccc23)cc1` [NCI compound 37180] returned a CC50 in series [2] above 100 µM.

As to `CN(C)c1ccc(C=Nc2cc(S(=O)(=O)O)cc3cc(S(=O)(=O)O)cc(O)c23)cc1` [NCI compound 37200], in series [2], the CC50 at 72 h is above 100 µM. For the same compound, the IC50 in series [3] was 0.94 µM; in series [4], 1.18 µM.

Take `CCOc1ccc(N=Nc2ccc(C=Nc3ccc4c(O)cc(S(=O)(=O)O)cc4c3)cc2)cc1` [NCI compound 37220]: the IC50 in series [1] (IC50 for A/PR/8/34) turned out to be 0.42 µM. This compound also gave a CC50 at 72 h in series [2] above 100 µM.

In series [2], `Nc1ccc(C(=O)Nc2ccc(S(=O)(=O)O)c3cccc(O)c23)cc1` [NCI compound 37609] had a CC50 at 72 h above 100 µM.

`O=[N+]([O-])c1ccc(N=Nc2c(O)ccc3cc(S(=O)(=O)O)ccc23)cc1` [NCI compound 45538] gave a CC50 at 72 h in series [2] above 100 µM.

The compound `O=[N+]([O-])c1ccc(N=Nc2c(O)ccc3cc(S(=O)(=O)O)cc(S(=O)(=O)O)c23)cc1` [NCI compound 45539] had a CC50 at 72 h in series [2] above 100 µM.

With `O=[N+]([O-])c1ccc(N=Nc2c(O)c(S(=O)(=O)O)cc3cc(S(=O)(=O)O)ccc23)cc1` [NCI compound 45540], the CC50 at 72 h in series [2] was above 100 µM.

Consider `O=[N+]([O-])c1cccc(N=Nc2c(O)c(S(=O)(=O)O)cc3cc(S(=O)(=O)O)ccc23)c1` [NCI compound 45541], for which the CC50 at 72 h in series [2] was above 100 µM.

The compound `O=S(=O)(O)c1cc2cccc(S(=O)(=O)O)c2c(O)c1N=Nc1ccccc1` [NCI compound 45549] yielded an IC50 in series [1] (IC50 for A/PR/8/34) of 4.85 µM. Also, in series [2], the CC50 at 72 h was above 100 µM.

`O=S(=O)(O)c1ccc2c(N=Nc3ccc(N=Nc4ccccc4)cc3)c(O)ccc2c1` [NCI compound 65545] returned a CC50 at 72 h in series [2] above 100 µM. Further, the results for the IC50 in series [3] and in series [4] were 0.24 µM and 0.11 µM, respectively.

For `Cc1cc(S(=O)(=O)O)ccc1N=Nc1ccc(N=Nc2c(O)ccc3ccccc23)c(C)c1` [NCI compound 66221], the IC50 in series [1] (IC50 for A/PR/8/34) came out at 0.29 µM.

In the case of `CC(=O)Nc1cc(S(=O)(=O)O)cc2cc(S(=O)(=O)O)cc(O)c12` [NCI compound 74489], the CC50 at 72 h in series [2] was above 100 µM.

Compound `O=S(=O)(O)c1ccc2cc(N=Nc3cc(S(=O)(=O)O)c4cccnc4c3O)ccc2c1` [NCI compound 87877] displayed a CC50 at 72 h in series [2] above 100 µM. The IC50 came out at 1.55 µM in series [3] and 1.74 µM in series [4].

Consider `CCCCCC(=O)Nc1cc(S(=O)(=O)O)cc2cc(S(=O)(=O)O)cc(O)c12` [NCI compound 97290], for which the CC50 at 72 h in series [2] was above 100 µM.

Consider `Cc1nnc(NS(=O)(=O)c2ccc(N=Nc3c(O)c(C(=O)O)cc4ccccc34)cc2)s1` [NCI compound 134131], for which the CC50 at 72 h in series [2] is above 100 µM.

On to `CC1NOC(NS(=O)(=O)c2ccc(N=Nc3c(O)c(C(=O)O)cc4ccccc34)cc2)C1C` (centres unmarked) [NCI compound 134132], for which the IC50 in series [1] (read-out: IC50 for A/PR/8/34) came to 0.64 µM.

`Cc1cccc(NS(=O)(=O)c2ccc(N=Nc3c(O)c(C(=O)O)cc4ccccc34)cc2)n1` [NCI compound 134133] yielded an IC50 in series [1] below 0.12 µM.

With `O=C(O)c1cc2ccccc2c(N=Nc2ccc(S(=O)(=O)Nc3ccccn3)cc2)c1O` [NCI compound 134134], the IC50 in series [1] (IC50 for A/PR/8/34) is 0.45 µM.

With `O=C(O)c1cc2ccccc2c(N=Nc2ccc(S(=O)(=O)Nc3nccs3)cc2)c1O` [NCI compound 134135], the CC50 at 72 h in series [2] is above 100 µM. For the same compound, the IC50 came to 0.31 µM in series [3] and 0.24 µM in series [4].

Compound `O=C(O)c1cc2ccccc2c(N=Nc2ccc(S(=O)(=O)Nc3ncccn3)cc2)c1O` [NCI compound 134136] registered a CC50 at 72 h in series [2] above 100 µM.

Consider `O=C(O)c1cc2ccccc2c(N=Nc2ccc(S(=O)(=O)O)cc2)c1O` [NCI compound 134138], for which, in series [2], the CC50 at 72 h was above 100 µM. Moreover, the IC50 in series [3] was 2.9 µM; in series [4], 3.06 µM.

As to `N=C(N)NS(=O)(=O)c1ccc(N=Nc2c(O)c(C(=O)O)cc3ccccc23)cc1` [NCI compound 134139], the CC50 at 72 h in series [2] was above 100 µM.

On to `Cc1cc(NS(=O)(=O)c2ccc(N=Nc3c(O)c(C(=O)O)cc4ccccc34)cc2)nc(C)n1` [NCI compound 134140], for which, in series [2], the CC50 at 72 h was above 100 µM.

The compound `Cc1ccc(N=Nc2c(O)c(C(=O)O)cc3ccccc23)cc1C` [NCI compound 134141] displayed a CC50 at 72 h in series [2] above 100 µM.

For the compound `O=C(O)c1c(O)c(N=Nc2ccc(S(=O)(=O)Nc3ccccn3)cc2)cc2ccccc12` [NCI compound 134145], the CC50 at 72 h in series [2] is above 100 µM.

Compound `Nc1cc(S(=O)(=O)O)cc2cc(S(=O)(=O)O)c(N=Nc3cc(S(=O)(=O)O)cc4cc(S(=O)(=O)O)cc(O)c34)c(O)c12` [NCI compound 162530] gave a CC50 at 72 h in series [2] above 100 µM.

In turn, `O=C(O)c1cc(C(=O)CCCC(=O)c2cc(C(=O)O)c(O)c3ccccc23)c2ccccc2c1O` [NCI compound 292216] registered a CC50 at 72 h in series [2] above 100 µM.

As for `Cc1ccc(Nc2nnc(CSc3ccc(Cl)cc3)s2)c(S(=O)(=O)O)c1` [NCI compound 369693], the CC50 at 72 h in series [2] is above 100 µM.
